Test results reported in ChEMBL document CHEMBL1124787, “Conformationally constrained congeners of 6-aryl-5-methyl-4,5-dihydro-3(2H)-pyridazinones active on the cardiovascular system: conformational studies by molecular mechanics calculations and 1H NMR spectroscopy” (1990).
Activity calls are given as the source filed them. The calls are words filed in the database; no cut-off is given here.

Tests used:
Rattus norvegicus = test: The dose (administered orally) that lowered blood pressure by 50 mmHg in conscious, spontaneously hypertensive rats (SHR) (peak effect); IA-Inactive; format: functional, organism-based
Cavia porcellus = organism: Cavia porcellus; test: Inotropic activity evaluated in vitro in spontaneously beating guinea pig atria;IA-Inactive; format: functional
Mus musculus = test: Antithrombotic activity after oral administration in mouse was measured as protection vs control percent; format: functional

Row | SMILES | ED50 (Rattus norvegicus) | pD2 (Cavia porcellus) | Activity (Mus musculus)
1 | CC(=O)Nc1ccc2c(c1)CCCC1CC(=O)NN=C21 (stereo not given) | inactive | inactive | 46
2 | Nc1ccc2c(c1)CCCC1CC(=O)NN=C21 (stereo not given) | inactive | inactive | 45
3 | CC(=O)Nc1ccc2c(c1)CC1CC(=O)NN=C21 (stereo not given) | – | – | 100
4 | Nc1ccc2c(c1)CCC1CC(=O)NN=C21 (stereo not given) | – | – | 73
5 | CC(=O)Nc1ccc2c(c1)CCC1CC(=O)NN=C21 (stereo not given) | – | – | 100
6 | Nc1ccc2c(c1)CC1CC(=O)NN=C21 (stereo not given) | – | – | 87
